Source: patent publication US20220324835A1 (Nurix Therapeutics, Inc., priority 2018, published 2022)
pIC50: −log10 of the molar value.

Columns and labels:
[1] = target: T1, Cbl-b (Homo sapiens, UniProt Q13191); test: Cbl-b activity assay (Cbl-b inhibition assay), TR-FRET of Cbl-b interaction with UbcH5B-Ub; assay type: biochemical; details: assay buffer with 100 mM NaCl, 60 nM Src kinase; read-out: Cbl-b activity IC50
How it was run: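 TR-FRET readout of Cbl-b binding to Bodipy-fluorescein N-terminally labeled Ub conjugated to UbcH5B C85K, measured with compound present. After compound incubation, 60 nM Src kinase with 1 mM ATP and 5 mM MgCl2 (final) was added for 1.5 h, then a further 1 h incubation; asterisked values used 50 mM NaCl buffer and 30 nM Src.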

[2] = target: T1, Cbl-b; test: Cbl-b inhibition assay (Cbl-b activity assay, FRET, Biological Example 1; 100 mM NaCl, 60 nM Src kinase); assay type: biochemical; details: upper bound stated in text lists; read-out: IC50 values in the Cbl-b inhibition assay of Biological Example 1
Source text: FIG. 1A and FIG. 1B show a series of diagrams depicting the activity assay utilized to assay inhibition of Cbl-b activity by a Cbl-b inhibitor. FIG. 1A: The activity assay mixture comprises an N-terminal biotinylated Avi-tagged Cbl-b, an E2 enzyme (i.e., UbcH5B) irreversibly conjugated to Bodipy-Fluorescein tagged ubiquitin (i.e., UbcH5B-Ub), a Src kinase, streptavidin-terbium, and assay buffer. Phosphorylation of Cbl-b by the Src kinase allows UbcH5B-Ub to bind to Cbl-b and bring the Bodipy-Fluorescein tagged ubiquitin in proximity to the streptavidin-terbium bound to the N-terminal biotinylated Avi-tagged Cbl-b. […] FIG. 1B: In the presence of a Cbl-b inhibitor, such as one described herein, Cbl-b is unable to bind UbcH5B-Ub. The lack of a FRET signal indicates Cbl-b is inhibited by the Cbl-b inhibitor. Ub indicates ubiquitin; N-Avi indicates biotinylated Avi-tag at the N-terminus of Cbl-b; inhibitor indicates Cbl-b inhibitor.
The lack of a FRET signal indicates Cbl-b is inhibited by the Cbl-b inhibitor. In FIG. 1A and FIG. 1B, Ub indicates ubiquitin; N-Avi indicates biotinylated Avi-tag at the N-terminus of Cbl-b; and inhibitor indicates Cbl-b inhibitor.

T1 sequence (Q13191 36-427): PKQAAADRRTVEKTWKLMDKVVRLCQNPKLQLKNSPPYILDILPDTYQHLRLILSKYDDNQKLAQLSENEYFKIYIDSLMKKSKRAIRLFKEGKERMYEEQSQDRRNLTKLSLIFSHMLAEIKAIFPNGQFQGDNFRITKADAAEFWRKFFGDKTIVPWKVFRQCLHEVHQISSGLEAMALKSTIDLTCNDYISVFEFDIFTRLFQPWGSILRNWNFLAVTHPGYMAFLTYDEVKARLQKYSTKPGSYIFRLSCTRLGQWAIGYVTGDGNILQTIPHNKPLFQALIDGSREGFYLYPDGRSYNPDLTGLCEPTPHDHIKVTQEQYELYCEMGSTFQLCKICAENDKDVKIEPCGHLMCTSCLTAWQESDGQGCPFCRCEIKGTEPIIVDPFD

| Structure (SMILES) | pIC50 [1] | pIC50 [2] |
| --- | --- | --- |
| Cn1cnnc1CC1(c2cccc(N3Cc4c(cc(CN5CCOC(CCF)C5)cc4C(F)(F)F)C3=O)c2)COC1 (centres unmarked) [Compound 521, 6-{[2-(2-fluoroethyl)morpholin-4-yl]methyl}-2-(3-{3-[(4-methyl-1,2,4-triazol-3-yl)methyl]oxetan-3-yl}phenyl)-4-(trifluoromethyl)-3H-isoindol-1-one] | > 7.00 | ≥ 7.00 |
| C[C@@H]1CN(Cc2cc3c(c(C(F)(F)F)c2)CN(c2cccc(-c4c(-c5nncn5C)cnn4C)c2)C3=O)CCO1 [Compound 524, (R)-2-(3-(l-methyl-4-(4-methyl-4H-1,2,4-triazol-3-yl)-1H-pyrazol-5-yl)phenyl)-6-((2-methylmorpholino)methyl)-4-(trifluoromethyl)isoindolin-1-one] | > 7.00 | ≥ 7.00 |
| C[C@@H]1CN(Cc2cc3c(c(C(F)(F)F)c2)CN(c2cccc(-c4c(-c5nncn5C)cnn4C)c2)C3=O)C[C@H](C)O1 [Compound 525, 6-(((2S,6S)-2,6-dimethylmorpholino)methyl)-2-(3-(l-methyl-4-(4-methyl-4H-1,2,4-triazol-3-yl)-1H-pyrazol-5-yl)phenyl)-4-(trifluoromethyl)isoindolin-1-one] | > 7.00 | ≥ 7.00 |
| Cn1cnnc1CC1(c2cccc(N3Cc4c(cc(CC5CNCCC5=O)cc4C(F)(F)F)C3=O)c2)COC1 (centres unmarked) [Compound 530, 2-(3-(3-((4-methyl-4H-1,2,4-triazol-3-yl)methyl)oxetan-3-yl)phenyl)-6-((4-oxopiperidin-3-yl)methyl)-4-(trifluoromethyl)isoindolin-1-one] | > 7.00 | ≥ 7.00 |
| CC(c1cc2c(c(C(F)(F)F)c1)CN(c1cccc(C3(Cc4nncn4C)COC3)c1)C2=O)n1ccnc1 (centres unmarked) [Compound 542, 6-(1-(1H-imidazol-1-yl)ethyl)-2-(3-(3-((4-methyl-4H-1,2,4-triazol-3-yl)methyl)oxetan-3-yl)phenyl)-4-(trifluoromethyl)isoindolin-1-one] | > 7.00 | ≥ 7.00 |
| CN(c1cc2c(c(C(F)(F)F)c1)CN(c1cccc([C@@](C)(F)C(F)(F)c3nncn3C)c1)C2=O)[C@H]1CNC[C@@H]1F [Example 550, 6-(((3S,4S)-4-fluoropyrrolidin-3-yl)(methyl)amino)-2-(3-((R)-1,1,2-trifluoro-1-(4-methyl-4H-1,2,4-triazol-3-yl)propan-2-yl)phenyl)-4-(trifluoromethyl)iso-indolin-1-one] | > 7.00 | ≥ 7.00 |
| CN(c1cc2c(c(C(F)(F)F)c1)CN(c1cccc([C@@](C)(F)C(F)(F)c3nncn3C)c1)C2=O)[C@@H]1CNC[C@H]1F [Example 551, 6-(((3R,4R)-4-fluoropyrrolidin-3-yl)(methyl)amino)-2-(3-((R)-1,1,2-trifluoro-1-(4-methyl-4H-1,2,4-triazol-3-yl)propan-2-yl)phenyl)-4-(trifluoromethyl)iso-indolin-1-one] | > 7.00 | ≥ 7.00 |
| Cn1cnnc1CC1(c2cccc(N3Cc4c(cc(CN5CCC(F)CC5)cc4C4CC4)C3=O)c2)COC1 [Example 552, 4-cyclopropyl-6-((4-fluoropiperidin-1-yl)methyl)-2-(3-(3-((4-methyl-4H-1,2,4-triazol-3-yl)methyl)oxetan-3-yl)phenyl)isoindolin-1-one] | > 7.00 | ≥ 7.00 |
| Cn1cnnc1CC1(c2cccc(N3Cc4c(cc(C(O)C(F)(F)F)cc4C(F)(F)F)C3=O)c2)COC1 (centres unmarked) [Example 580, 2-(3-(3-((4-Methyl-4H-1,2,4-triazol-3-yl)methyl)oxetan-3-yl)phenyl)-6-(2,2,2-trifluoro-1-hydroxyethyl)-4-(trifluoromethyl)isoindolin-1-one] | > 7.00 | ≥ 7.00 |
| Cc1cc(C(=O)Nc2cccc(C3(Cc4nncn4C)COC3)c2)n2nc(C)cc2n1 [Example 597, 2,5-dimethyl-N-(3-(3-((4-methyl-4H-1,2,4-triazol-3-yl)methyl)oxetan-3-yl)phenyl)pyrazolo[1,5-a]pyrimidine-7-carboxamide] | 6.52 to 7.00 | ≥ 6.52 |
| Cn1cnnc1CC1(c2cccc(N3Cc4c(cc(C5CCCOC5)cc4C(F)(F)F)C3=O)c2)COC1 (centres unmarked) [Example 615, 2-(3-(3-((4-methyl-4H-1,2,4-triazol-3-yl)methyl)oxetan-3-yl)phenyl)-6-(tetrahydro-2H-pyran-3-yl)-4-(trifluoromethyl)isoindolin-1-one] | > 7.00 | ≥ 7.00 |
| CC1=C(c2cc3c(c(C(F)(F)F)c2)CN(c2cccc(C4(Cc5nncn5C)COC4)c2)C3=O)CCO1 [Example 616, 6-(2-methyl-4,5-dihydrofuran-3-yl)-2-(3-(3-((4-methyl-4H-1,2,4-triazol-3-yl)methyl)oxetan-3-yl)phenyl)-4-(trifluoromethyl)isoindolin-1-one] | > 7.00 | ≥ 7.00 |
| Cn1cnnc1C[C@H](c1cccc(N2Cc3c(cccc3C(F)(F)F)C2=O)c1)C(F)F [Example 617, (R)-2-(3-(1,1-difluoro-3-(4-methyl-4H-1,2,4-triazol-3-yl)propan-2-yl)phenyl)-4-(trifluoromethyl)isoindolin-1-one] | 6.52 to 7.00 | ≥ 6.52 |
| Cn1cnnc1CC1(c2cccc(N3Cc4c(cc(CN5CC[C@H](F)[C@@H](F)C5)cc4C(F)(F)F)C3=O)c2)COC1 [Example 626a, 6-(((3S,4S)-3,4-difluoropiperidin-1-yl)methyl)-2-(3-(3-((4-methyl-4H-1,2,4-triazol-3-yl)methyl)oxetan-3-yl)phenyl)-4-(trifluoromethyl)isoindolin-1-one] | > 7.00 | ≥ 7.00 |
| Cn1cnnc1CC1(c2cccc(N3Cc4c(cc(CN5CC[C@@H](F)[C@H](F)C5)cc4C(F)(F)F)C3=O)c2)COC1 [Example 626b, 6-(((3R,4R)-3,4-difluoropiperidin-1-yl)methyl)-2-(3-(3-((4-methyl-4H-1,2,4-triazol-3-yl)methyl)oxetan-3-yl)phenyl)-4-(trifluoromethyl)isoindolin-1-one] | > 7.00 | ≥ 7.00 |
| Cn1cnnc1CC1(c2cccc(N3Cc4c(cc(CN5CCOC(C(F)F)C5)cc4C(F)(F)F)C3=O)c2)COC1 (centres unmarked) [Example 630, 6-{[2-(difluoromethyl)morpholin-4-yl]methyl}-2-(3-{3-[(4-methyl-1,2,4-triazol-3-yl)methyl]oxetan-3-yl}phenyl)-4-(trifluoromethyl)-3H-isoindol-1-one] | > 7.00 | ≥ 7.00 |
| Cn1cnnc1CC1(c2cccc(N3Cc4c(cc(CN5CCc6ccncc6C5)cc4C(F)(F)F)C3=O)c2)COC1 [Example 638, 6-((3,4-dihydro-2,7-naphthyridin-2(1H)-yl)methyl)-2-(3-(3-((4-methyl-4H-1,2,4-triazol-3-yl)methyl)oxetan-3-yl)phenyl)-4-(trifluoromethyl)isoindolin-1-one] | > 7.00 | ≥ 7.00 |
| C[C@@H]1CCN(Cc2cc3c(c(C(F)(F)F)c2)CN(c2cccc(C4(Cc5nncn5C)COC4)c2)C3=O)C[C@@H]1F [Example 639a, 6-(((3R,4R)-3-fluoro-4-methylpiperidin-1-yl)methyl)-2-(3-(3-((4-methyl-4H-1,2,4-triazol-3-yl)methyl)oxetan-3-yl)phenyl)-4-(trifluoromethyl)isoindolin-1-one] | > 7.00 | ≥ 7.00 |
| C[C@H]1CCN(Cc2cc3c(c(C(F)(F)F)c2)CN(c2cccc(C4(Cc5nncn5C)COC4)c2)C3=O)C[C@H]1F [Example 639b, 6-(((3S,4S)-3-fluoro-4-methylpiperidin-1-yl)methyl)-2-(3-(3-((4-methyl-4H-1,2,4-triazol-3-yl)methyl)oxetan-3-yl)phenyl)-4-(trifluoromethyl)isoindolin-1-one] | > 7.00 | ≥ 7.00 |
| Cn1cnnc1CC1(c2cccc(N3Cc4c(cc(CN5CC6CC(C5)C6(F)F)cc4C(F)(F)F)C3=O)c2)COC1 [Example 640, 6-((6,6-difluoro-3-azabicyclo[3.1.1]heptan-3-yl)methyl)-2-(3-(3-((4-methyl-4H-1,2,4-triazol-3-yl)methyl)oxetan-3-yl)phenyl)-4-(trifluoromethyl)isoindolin-1-one] | > 7.00 | ≥ 7.00 |
| Cn1cnnc1CC1(c2cccc(N3Cc4c(cc(CN5CCc6cccnc6C5)cc4C(F)(F)F)C3=O)c2)COC1 [Example 645, 6-((5,8-dihydro-1,7-naphthyridin-7(6H)-yl)methyl)-2-(3-(3-((4-methyl-4H-1,2,4-triazol-3-yl)methyl)oxetan-3-yl)phenyl)-4-(trifluoromethyl)isoindolin-1-one] | > 7.00 | ≥ 7.00 |
| Cn1cnnc1CC1(c2cccc(N3Cc4c(cc(CN5CCC(F)(F)C(O)C5)cc4C(F)(F)F)C3=O)c2)COC1 (centres unmarked) [Example 647, 6-((4,4-difluoro-3-hydroxypiperidin-1-yl)methyl)-2-(3-(3-((4-methyl-4H-1,2,4-triazol-3-yl)methyl)oxetan-3-yl)phenyl)-4-(trifluoromethyl)isoindolin-1-one] | > 7.00 | ≥ 7.00 |
